Laboratory results from patent US8580752B2, “Aromatic amides as potentiators of bioefficacy of anti-infective drugs” (priority 2005, dated 2013).
Like-named read-outs stand apart in the source and are kept apart here.

What was measured:
MRSA 15187 = assay: MIC by checkerboard method; format: cell-based; conditions: Staphylococcus aureus; Mupirocin alone; S aureus MRSA 15187
MRSA [1] = assay: Wound infection treatment in mice; format: in vivo; conditions: for Growth / Mean CFU: MRSA wound infection in mice
Experimental: The study was conducted to see the in vivo response of Mupirocin in combination with the above-mentioned potentiator. Wound area of 1.5 cm×1.5 cm was created on the skin of mice by abrasion with sand paper. An inoculum of 10^8 CFU/ml of MRSA was applied on to this wound area. The wound was treated for five days (two applications a day) with mupirocin cream and the other group with a formulation of mupirocin at ¼^th concentration and compound of formula 1a. […] (Table-6).

S aureus ATCC 29213 = assay: MIC by checkerboard method; format: cell-based, Staphylococcus aureus; conditions: Staphylococcus aureus
MRSA 450 = assay: MIC by checkerboard method; format: cell-based; conditions: Staphylococcus aureus; Mupirocin alone; S aureus MRSA 450; read-out: MIC of Mupirocin
MRSA [2] = assay: MIC by checkerboard method, comparison with piperine; format: cell-based, Staphylococcus aureus; conditions: Staphylococcus aureus, Tables 5A/5B, Mupirocin alone, read-out: MIC Mupirocin
MRSA 33 = assay: MIC by checkerboard method; format: cell-based; conditions: Staphylococcus aureus; Mupirocin alone; S aureus MRSA 33; read-out: MIC of Mupirocin
[3] = test system: mice and guinea pig models infected with microorganisms; assay: In vivo infection models, combinations with anti-infective agents
Description: These combinations were also efficacious when tested in in vivo using mice and guinea pig models infected with microorganisms (table-7).

[4] = test system: S. aureus ATCC 29213 (wild strain); assay: Ethidium bromide accumulation and efflux; conditions: compound 25 μg/ml, ethidium bromide 2 μg/ml
Experimental: Briefly, for measurement of the level of accumulation, both the bacterial strains were grown overnight on Trypticase Soya Agar. Bacterial suspensions were prepared at an optical density at 550 nm of 0.2 in uptake buffer (NaCl, 110 mM; KCl, 7 mM; NH4Cl, 50 mM; Na2HPO4, 0.4 mM; Tris base, 52 mM; glucose, 0.2% adjusted to pH 7.5 with HCl) and were then exposed to ethidium bromide at a concentration of 2 μg/ml. The increase in fluorescence as ethidium bromide entered the cells was recorded fluorometrically with a Perkin-Elmer model LS50 spectrofluorimeter (excitation λ, 530 nm; emission λ, 600 nm) at 30° C.
For determining ethidium bromide loss, bacterial suspensions were prepared as described above and were exposed to ethidium bromide (2 μg/ml) in the presence of compound of formula 1a (25 μg/ml) for 30 min at 37° C. The cells were then pelleted by centrifugation and were resuspended in fresh uptake buffer. The loss of ethidium bromide from the cells was measured as a decrease in fluorescence (FIG. IB)

[5] = test system: Staphylococcus aureus, MRSA and Staphylococcus hemolyticus; assay: Decrease in MIC of ciprofloxacin in combination; format: cell-based; conditions: bacterial species (Table-2)
[6] = test system: S. aureus 29213, MRSA and M. tuberculosis H37Rv; assay: Comparison of potentiating activity with piperine; format: cell-based; conditions: Ciprofloxacin, Amikacin, Rifampicin and Mupirocin (Table-5 A & B)
Experimental: Minimum Inhibitory Concentration (MIC) of antibacterial agents (Ciprofloxacin, Amikacin, Rifampicin and Mupirocin) was determined alone and in combination with compound of formula (1a). MIC of the abovementioned antibacterial agents was also determined in combination with piperine.

Acute toxicity study = format: in vivo; conditions: mice
Description: Parameters monitored were: Food/water consumption, body weight, organ weight, haematological and clinical chemistry profile.

[7] = 2% Mupirocin, five days, two applications a day
[8] = 0.25% Mupirocin + 0.25% compound of formula 1
[9] = 0.5% Mupirocin + 0.25% compound of formula 1

In the case of `C/C(=C\C(=O)OCCCCCCCCC(=O)O)C[C@@H]1OC[C@H](C[C@@H]2O[C@H]2[C@@H](C)[C@H](C)O)[C@@H](O)[C@H]1O` [Mupirocin, reference compound], the MIC (MRSA 15187) is reported as 0.25 µg/mL, the Growth (MRSA [1]; [7]) is reported as 3/5 and the “Mean CFU” value (MRSA [1]; [7]) is reported as 1.08 × 10^4 CFU. The MIC (S aureus ATCC 29213; ATCC29213, Mupirocin alone, read-out: MIC of Mupirocin) was 0.12 µg/mL, the MIC (S aureus ATCC 29213; ATCC29213, Tables 5A/5B, Mupirocin alone, read-out: MIC Mupirocin) was 0.12 µg/mL and the MIC (MRSA 450) was 0.25 µg/mL. The MIC (MRSA [2]) was 0.12 µg/mL and the MIC (MRSA 33) was 0.12 µg/mL.

For `CCC(/C=C/C(=O)N1CCCCC1)=C\c1ccc2c(c1)OCO2` [compound of formula 1a, 4-ethyl-5-(3,4-methylenedioxyphenyl)-2E,4E-pentadienoic acid piperidine amide], the “efficacy of combinations with anti-infective agents in vivo” value [3] was “efficacious”, the “accumulation of ethidium bromide” value ([4]; S. aureus wild type (FIG. IA)) was “Increased Accumulation” and the “efflux of ethidium bromide” value ([4]; S. aureus wild type (FIG. IB)) was “Decreased Efflux”. The Growth (MRSA [1]; [8]) was 4/5, the “Mean CFU” value (MRSA [1]; [8]) was 2.5 × 10^4 CFU and the Growth (MRSA [1]; [9]) was 1/5. For the same molecule, the “Mean CFU” value (MRSA [1]; [9]) was 4.0 × 10^3 CFU, the Growth (MRSA [1]; 0.5% Mupirocin + 0.5% compound of formula 1) was 0/5 and the wound healing (MRSA [1]; combination of mupirocin with compound of formula-1a vs mupirocin cream, MRSA-infected skin wound of mice, five days) was “better wound healing”. The “reductions in MIC of ciprofloxacin in combination with the potentiator” value [5] was “Two to more than eight fold”, the “potency relative to piperine in reducing the MICs of the antibacterial agents” value [6] was “four times more potent than piperine” and the “LD50 (oral)” value (Acute toxicity study) was greater than 3.0 gm/kg.
